Legend:
Type in all cases: biochemical
JAK3 = target: T1, JAK3 (Homo sapiens, UniProt P52333); assay: JAK3 inhibition assay (33P incorporation); conditions: 5 uM ATP, 1 uM poly(Glu)4Tyr, 1 nM JAK3, 25C
T1 sequence (P52333 1-1124): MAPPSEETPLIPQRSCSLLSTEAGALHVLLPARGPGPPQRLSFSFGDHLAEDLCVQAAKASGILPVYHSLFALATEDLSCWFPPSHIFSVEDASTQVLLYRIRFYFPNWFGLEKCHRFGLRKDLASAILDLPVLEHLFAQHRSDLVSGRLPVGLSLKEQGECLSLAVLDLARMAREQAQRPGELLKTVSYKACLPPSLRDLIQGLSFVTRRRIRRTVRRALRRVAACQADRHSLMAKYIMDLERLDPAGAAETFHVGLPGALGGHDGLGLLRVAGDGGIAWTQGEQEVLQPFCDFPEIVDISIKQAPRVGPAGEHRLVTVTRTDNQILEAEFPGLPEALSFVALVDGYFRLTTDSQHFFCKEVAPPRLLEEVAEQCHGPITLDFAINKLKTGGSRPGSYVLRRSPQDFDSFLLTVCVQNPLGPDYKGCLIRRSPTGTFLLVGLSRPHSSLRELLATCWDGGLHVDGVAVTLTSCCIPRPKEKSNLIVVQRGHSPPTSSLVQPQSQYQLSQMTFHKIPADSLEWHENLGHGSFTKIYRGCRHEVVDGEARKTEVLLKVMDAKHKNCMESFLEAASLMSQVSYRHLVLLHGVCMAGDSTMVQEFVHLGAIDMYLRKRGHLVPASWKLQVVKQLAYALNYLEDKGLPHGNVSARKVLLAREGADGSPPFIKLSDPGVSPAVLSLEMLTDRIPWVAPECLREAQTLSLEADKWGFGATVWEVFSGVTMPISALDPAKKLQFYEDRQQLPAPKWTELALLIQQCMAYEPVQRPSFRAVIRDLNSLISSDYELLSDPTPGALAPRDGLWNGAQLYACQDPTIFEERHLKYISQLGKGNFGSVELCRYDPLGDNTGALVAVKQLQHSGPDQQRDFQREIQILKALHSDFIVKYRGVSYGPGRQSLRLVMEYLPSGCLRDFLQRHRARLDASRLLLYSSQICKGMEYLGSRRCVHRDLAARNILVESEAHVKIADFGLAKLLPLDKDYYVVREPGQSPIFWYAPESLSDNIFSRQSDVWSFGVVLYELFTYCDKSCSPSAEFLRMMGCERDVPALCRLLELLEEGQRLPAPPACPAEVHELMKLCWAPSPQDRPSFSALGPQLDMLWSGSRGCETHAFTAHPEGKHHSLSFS
Description: • kinase buffer: (100 mM HEPES pH 7.4; 1 mM DTT; 10 mM MgCl2; 25 mM NaCl; and 0.01% BSA) • 1 nM JAK3 (enzyme) • 1 uM poly(Glu)4Tyr (substrate) • 5 uM ATP (substrate, 200 uCi/umole ATP) Procedure
To each well of a 96 well polycarbonate plate is added 1.5 ul of a candidate JAK3 inhibitor along with 50 ul of kinase buffer containing 2 uM poly(Glu)4Tyr and 10 uM ATP. This is then mixed and 50 ul of kinase buffer containing 2 nM JAK3 enzyme is added to start the reaction. After 20 minutes at room temperature (25C), the reaction is stopped with 50 ul of 20% trichloroacetic acid (TCA) that also contains 0.4 mM ATP. The entire content of each well is then transferred to a 96 well glass fiber filter plate using a TomTek Cell Harvester. After washing, 60 ul of scintillation fluid is added and 33P incorporation detected on a Perkin Elmer TopCount.

KDR = KDR (Homo sapiens, UniProt P35968); assay: KDR enzyme assay (coupled enzyme assay); conditions: 300 μM ATP, 10 μM poly E4Y, 30 nM KDR, 37° C.; read-out: Ki value, inhibition of KDR
KDR, sequence (P35968 20-1356): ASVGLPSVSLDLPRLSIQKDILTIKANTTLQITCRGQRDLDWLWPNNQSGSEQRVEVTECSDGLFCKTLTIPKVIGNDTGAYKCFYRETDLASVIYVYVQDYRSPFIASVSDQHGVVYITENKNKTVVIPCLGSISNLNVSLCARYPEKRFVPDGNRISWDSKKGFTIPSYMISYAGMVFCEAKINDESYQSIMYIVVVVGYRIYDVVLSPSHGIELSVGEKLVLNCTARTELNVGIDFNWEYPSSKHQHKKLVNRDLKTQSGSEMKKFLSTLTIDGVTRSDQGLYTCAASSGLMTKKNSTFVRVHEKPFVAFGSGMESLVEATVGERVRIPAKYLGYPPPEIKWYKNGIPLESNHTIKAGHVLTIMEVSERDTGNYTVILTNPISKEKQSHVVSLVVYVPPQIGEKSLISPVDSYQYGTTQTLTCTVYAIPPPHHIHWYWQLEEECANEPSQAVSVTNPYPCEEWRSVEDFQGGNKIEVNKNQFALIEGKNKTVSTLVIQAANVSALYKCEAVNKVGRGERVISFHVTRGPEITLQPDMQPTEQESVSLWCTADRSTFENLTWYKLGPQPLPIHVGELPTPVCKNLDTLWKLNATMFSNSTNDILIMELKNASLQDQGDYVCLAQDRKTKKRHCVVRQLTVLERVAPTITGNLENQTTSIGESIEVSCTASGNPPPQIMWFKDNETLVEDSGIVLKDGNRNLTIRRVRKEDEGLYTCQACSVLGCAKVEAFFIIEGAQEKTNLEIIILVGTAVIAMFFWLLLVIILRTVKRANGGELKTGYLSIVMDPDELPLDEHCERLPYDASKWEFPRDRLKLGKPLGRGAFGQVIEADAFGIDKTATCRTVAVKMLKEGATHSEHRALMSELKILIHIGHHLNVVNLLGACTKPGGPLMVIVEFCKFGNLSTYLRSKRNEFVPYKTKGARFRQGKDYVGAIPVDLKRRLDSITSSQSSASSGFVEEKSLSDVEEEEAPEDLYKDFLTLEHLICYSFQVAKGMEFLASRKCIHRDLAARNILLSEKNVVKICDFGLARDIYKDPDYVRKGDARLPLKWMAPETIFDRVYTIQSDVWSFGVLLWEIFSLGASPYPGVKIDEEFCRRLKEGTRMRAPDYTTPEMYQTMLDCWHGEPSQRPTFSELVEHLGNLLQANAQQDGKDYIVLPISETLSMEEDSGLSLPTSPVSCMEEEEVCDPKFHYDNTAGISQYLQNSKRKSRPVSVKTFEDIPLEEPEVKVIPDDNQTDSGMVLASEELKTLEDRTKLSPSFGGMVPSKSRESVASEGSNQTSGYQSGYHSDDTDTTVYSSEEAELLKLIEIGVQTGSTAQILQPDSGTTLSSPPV
Description: Compounds were screened for their ability to inhibit KDR using a standard coupled enzyme assay (Fox et al., Protein Sci., (1998) 7, 2249). Assays were carried out in a mixture of 200 mM HEPES 7.5, 10 mM MgCl2, 25 mM NaCl, 1 mM DTT and 1.5% DMSO. Final substrate concentrations in the assay were 300 μM ATP (Sigma Chemicals) and 10 μM poly E4Y (Sigma). Assays were carried out at 37° C. and 30 nM KDR. Final concentrations of the components of the coupled enzyme system were 2.5 mM phosphoenolpyruvate, 200 μM NADH, 30 μg/ML pyruvate kinase and 10 μg/ml lactate dehydrogenase.
An assay stock buffer solution was prepared containing all of the reagents listed above, with the exception of ATP and the test compound of interest. 177 μl of the stock solution was placed in a 96 well plate followed by addition of 3 μl of 2 mM DMSO stock containing the test compound (final compound concentration 30 μM). The plate was preincubated for about 10 minutes at 37° C. and the reaction initiated by addition of 20 μl of ATP (final concentration 300 μM). Rates of reaction were obtained using a Molecular Devices plate reader (Sunnyvale, Calif.) over a 5 minute read time at 37° C.

c-Met = c-Met (Homo sapiens, UniProt P08581); assay: Ki determination for the inhibition of c-Met (coupled enzyme system); conditions: 200 μM ATP, 10 μM polyGluTyr, 80 nM c-Met, 30° C.
c-Met, sequence (P08581 25-1390): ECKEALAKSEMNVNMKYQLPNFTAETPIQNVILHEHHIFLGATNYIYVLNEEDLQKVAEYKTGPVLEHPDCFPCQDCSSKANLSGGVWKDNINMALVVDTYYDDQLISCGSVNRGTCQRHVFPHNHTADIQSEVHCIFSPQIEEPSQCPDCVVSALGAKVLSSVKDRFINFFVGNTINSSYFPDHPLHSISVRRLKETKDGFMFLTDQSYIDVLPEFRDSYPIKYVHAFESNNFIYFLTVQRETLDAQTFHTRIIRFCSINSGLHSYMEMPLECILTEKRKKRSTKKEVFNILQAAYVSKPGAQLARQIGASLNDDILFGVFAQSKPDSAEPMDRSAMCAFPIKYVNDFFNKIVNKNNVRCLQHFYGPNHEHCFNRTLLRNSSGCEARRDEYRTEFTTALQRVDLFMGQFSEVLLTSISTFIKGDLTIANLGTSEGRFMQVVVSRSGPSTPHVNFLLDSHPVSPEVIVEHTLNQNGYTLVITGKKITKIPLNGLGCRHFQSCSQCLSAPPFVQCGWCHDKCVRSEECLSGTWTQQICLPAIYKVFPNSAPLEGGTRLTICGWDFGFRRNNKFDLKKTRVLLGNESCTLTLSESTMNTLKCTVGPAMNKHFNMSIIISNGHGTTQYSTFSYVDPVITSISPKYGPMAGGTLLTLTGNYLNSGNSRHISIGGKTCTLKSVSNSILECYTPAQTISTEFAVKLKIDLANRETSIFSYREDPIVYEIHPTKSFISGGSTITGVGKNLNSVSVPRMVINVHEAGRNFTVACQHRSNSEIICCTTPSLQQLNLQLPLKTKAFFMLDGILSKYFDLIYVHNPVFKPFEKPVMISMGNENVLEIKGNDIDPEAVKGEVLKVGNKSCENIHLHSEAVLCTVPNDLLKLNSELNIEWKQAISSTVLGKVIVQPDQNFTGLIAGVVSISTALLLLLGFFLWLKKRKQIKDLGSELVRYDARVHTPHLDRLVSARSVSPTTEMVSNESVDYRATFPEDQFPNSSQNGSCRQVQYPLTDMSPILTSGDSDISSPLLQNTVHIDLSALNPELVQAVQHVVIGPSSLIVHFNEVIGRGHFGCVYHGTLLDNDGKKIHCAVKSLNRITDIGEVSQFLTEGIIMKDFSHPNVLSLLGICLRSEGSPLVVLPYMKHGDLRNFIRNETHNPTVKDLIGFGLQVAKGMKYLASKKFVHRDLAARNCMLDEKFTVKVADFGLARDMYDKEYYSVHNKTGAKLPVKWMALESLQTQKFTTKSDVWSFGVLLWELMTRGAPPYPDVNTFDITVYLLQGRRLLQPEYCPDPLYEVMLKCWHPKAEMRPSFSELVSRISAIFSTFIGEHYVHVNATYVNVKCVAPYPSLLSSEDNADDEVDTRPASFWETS
Description: Compounds were screened for their ability to inhibit c-Met kinase activity using a standard coupled enzyme system (Fox et al., Protein Sci. 1998, 7, 2249). Reactions were carried out in a solution containing 100 mM HEPES (pH 7.5), 10 mM MgCl2, 25 mM NaCl, 300 μM NADH, 1 mM DTT, and 1.5% DMSO. Final substrate concentrations in the assay were 200 μM ATP (Sigma Chemicals, St Louis, Mo.) and 10 μM polyGluTyr (Sigma Chemical Company, St. Louis). Reactions were carried out at 30° C. and 80 nM c-Met. Final concentrations of the components of the coupled enzyme system were 2.5 mM phosphoenolpyruvate, 300 μM NADH, 30 μg/ml pyruvate kinase and 10 μg/ml lactate dehydrogenase.
An assay stock buffer solution was prepared containing all of the reagents listed above with the exception of ATP and a test compound of the present invention. The assay stock buffer solution (175 μl) was incubated in a 96 well plate with 5 μl of the test compound of the present invention at final concentrations spanning 0.006 μM to 12.5 μM at 30° C. for 10 minutes. […] Rates of reaction were obtained using a Molecular Devices Spectramax plate reader (Sunnyvale, Calif.) over 10 minutes at 30° C. The Ki values were determined from the rate data as a function of inhibitor concentration.

Compound: O=C(c1nc(-c2oncc2-c2cccc(F)c2F)c[nH]1)N1CC=CC1 [Compound I-38, {4-[4-(2,3-Difluoro-phenyl)-isoxazol-5-yl]-1H-imidazol-2-yl}-(2,5-dihydro-pyrrol-1-yl)-methanone]
- Ki (JAK3): < 1000 nM
- Ki (KDR): < 5 µM
- Ki (c-Met): < 1000 nM
